Reference: US20220110315A1, “SOLUTIONS AND METHODS FOR ORGAN PRESERVATION” (priority 2019, published 2022)

System: isolated perfused rat hearts
Assay: Isolated perfused rat heart (modified Langendorff) global ischemia/reperfusion injury
Conditions: 5 μM for 5 min prior to 30 min global ischemia and for first 5 min of 45 min reperfusion; compared to untreated control I/R hearts; n=7

## Oc1ccc2c3c1O[C@H]1c4[nH]c5ccccc5c4C[C@@]4(O)[C@@H](C2)N(CC2CC2)CC[C@]314 [naltrindole]
  infarct size (TTC staining at end of reperfusion): reduced infarct size
  post-reperfused cardiac function (+dP/dtmax, -dP/dtmin, LVDP, LVEDP): significantly restored
